This data set in a line: Thermal gravimetric analysis at atmospheric pressure. In kind it is physicochemical.

Results on three substances are retold here after US20020156325A1, “Asymmetric beta-ketoiminate ligand compound, preparation method thereof, and organometal percursor comprising the same” (priority 2001, published 2002).

With “Ti [CH3COCHCNH (CH2CH (CH3) OH) CH2CH3]2 [Example 4]”, the “temperature at which the metal complex was vaporized or decomposed” value (shortened to “temperature”) was determined as 290 °C. For the same substance, where the note is “at 290° C.”, the “residue left after vaporization or decomposition (in words)” value was “little residue”.

Consider “Ti[CH3COCHCN(CH2CH2OH)2CH2CH3]2 [Example 6]”, for which the “solid residue left after vaporization or decomposition” value was “about 12%” and the “temperature” value is “about 380 °C”.

For “Ti[CH3COCHCNH(CH2CH2OH)CH2CH3]2 [Example 5]”, the “solid residue left after vaporization or decomposition” value was 7% and the “temperature” value is “about 330 °C”.
